The nature of assay [1]: Luminescent dose response cell-based high throughput screening assay for inhibitors of the Janus kinase 2 mutant JAK2V617F. [Related pubchem assays: 1446 (Primary screen.), 1521 (Confirmation assay.), 1486 (Counter screen.)]. Format: functional. (In general: A counterscreen serves to expose hits that act by an unwanted route or on another target.)
Assay [2] in a line: viability of PTEN-deleted HCT116 cells – cell-based, HCT116 PTEN knockout, dose response (AID 1047).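 Also: HCT116 colon tumor cells with PTEN knocked out; cells exposed to compound for 60 hours before readout; potency for loss of cell viability measured by luminescence.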 It is filed as functional.
The nature of assay [3]: viability of HCT116 lacking mutant beta-catenin – cell-based, human colon tumor, dose response (AID 1045).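 Also: HCT116 colon tumor cells with beta catenin knocked out; cells exposed to compound for 60 hours.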 It is filed as functional.
The nature of assay [4]: Intein inhibitors as potential Tuberculosis drugs, a cytotoxicity screen. [Related pubchem assays (depositor defined):AID2221, AID2223, AID434968, AID435010, AID449749, AID449750, AID489010]. It is filed as functional.
In assay [5] the target is T1, Replicative DNA helicase DnaB (Mycobacterium tuberculosis, UniProt P9WMR3).
T1 sequence (P9WMR3 whole entry): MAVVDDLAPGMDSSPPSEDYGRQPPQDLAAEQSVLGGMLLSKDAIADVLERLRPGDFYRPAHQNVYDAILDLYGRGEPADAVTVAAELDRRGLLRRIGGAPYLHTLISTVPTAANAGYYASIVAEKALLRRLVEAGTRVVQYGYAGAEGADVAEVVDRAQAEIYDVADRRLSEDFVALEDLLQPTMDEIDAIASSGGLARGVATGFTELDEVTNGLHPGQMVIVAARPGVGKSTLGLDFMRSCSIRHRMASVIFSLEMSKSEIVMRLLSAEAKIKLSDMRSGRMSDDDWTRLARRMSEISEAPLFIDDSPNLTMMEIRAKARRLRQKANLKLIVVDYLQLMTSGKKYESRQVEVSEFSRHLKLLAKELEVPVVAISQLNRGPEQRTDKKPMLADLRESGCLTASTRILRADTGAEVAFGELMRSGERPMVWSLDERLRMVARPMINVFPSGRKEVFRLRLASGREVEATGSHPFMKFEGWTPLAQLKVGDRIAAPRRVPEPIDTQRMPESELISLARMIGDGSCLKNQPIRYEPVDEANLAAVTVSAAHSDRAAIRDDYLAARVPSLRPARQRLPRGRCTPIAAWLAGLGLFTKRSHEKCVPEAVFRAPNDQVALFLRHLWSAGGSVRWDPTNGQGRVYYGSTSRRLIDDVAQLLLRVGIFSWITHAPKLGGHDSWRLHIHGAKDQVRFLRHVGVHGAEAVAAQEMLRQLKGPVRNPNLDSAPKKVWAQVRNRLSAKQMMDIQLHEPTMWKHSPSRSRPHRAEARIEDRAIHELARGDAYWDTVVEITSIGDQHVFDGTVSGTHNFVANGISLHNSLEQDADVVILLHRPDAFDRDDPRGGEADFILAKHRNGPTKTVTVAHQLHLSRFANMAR
Briefly: DnaB intein splicing inhibitors, dose response, biochemical, cell-free fluorescence (AID 449749). It is filed as functional.

Another assay deals with BJ. The assay is described as follows: growth inhibition of engineered Ras-driven BJ cells – cell-based, alamar blue fluorescence, cherrypicked samples, dose response (AID 2631).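 Also: confirmatory dose-response assay in RAS-dependent BJ fibroblasts engineered with TERT, LT and ST, with cytotoxicity read by fluorescence.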 It is filed as functional. The note with it: Homo sapiens. (In general: Resazurin is reduced to fluorescent resorufin, in cell work by metabolically active cells.)
Another assay has as its target T2, Protein RecA (Mycobacterium tuberculosis, UniProt P9WHJ3).
T2 sequence (P9WHJ3 whole entry): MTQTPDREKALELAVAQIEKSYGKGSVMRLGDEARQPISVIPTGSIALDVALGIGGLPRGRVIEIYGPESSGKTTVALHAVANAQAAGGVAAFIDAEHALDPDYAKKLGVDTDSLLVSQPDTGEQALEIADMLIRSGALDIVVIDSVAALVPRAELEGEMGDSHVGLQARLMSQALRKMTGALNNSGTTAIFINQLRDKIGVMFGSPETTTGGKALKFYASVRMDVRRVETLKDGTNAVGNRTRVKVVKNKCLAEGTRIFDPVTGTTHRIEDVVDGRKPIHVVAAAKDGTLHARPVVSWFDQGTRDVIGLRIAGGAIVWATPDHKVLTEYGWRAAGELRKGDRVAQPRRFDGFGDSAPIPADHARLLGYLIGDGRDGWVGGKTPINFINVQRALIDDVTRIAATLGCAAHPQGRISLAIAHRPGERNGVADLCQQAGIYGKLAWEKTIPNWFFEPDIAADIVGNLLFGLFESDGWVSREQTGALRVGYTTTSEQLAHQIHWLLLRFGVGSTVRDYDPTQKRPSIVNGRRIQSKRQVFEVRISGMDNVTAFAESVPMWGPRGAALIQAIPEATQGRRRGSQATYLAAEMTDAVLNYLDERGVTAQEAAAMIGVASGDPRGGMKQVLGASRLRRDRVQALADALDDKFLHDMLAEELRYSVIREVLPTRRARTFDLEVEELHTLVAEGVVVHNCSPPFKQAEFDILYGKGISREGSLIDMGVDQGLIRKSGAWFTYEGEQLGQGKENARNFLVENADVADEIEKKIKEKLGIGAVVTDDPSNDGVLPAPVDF
Briefly: Fluorescence Cell-Free Homogeneous Dose Retest to Identify Inhibitors of RecA-Intein Splicing Activity. [Related pubchem assays (depositor defined):AID2097, AID2223, AID489010, AID492950]. Format: functional.

A short description of assay [6]: CellTiter-Glo luminescence survival assay, SW480 colon tumor line, concentration-response curve, half-maximal inhibitory concentration (AID 1117338). Format: functional.
The nature of assay [7]: RKO cell viability reduction, dose response, CellTiter-Glo luminescence (AID 1117322). It is filed as functional. (In general: Cellular ATP, detected with luciferase, serves as a proxy for viable cell number.)
Assay [8] is described as follows: cytotoxicity toward HCT116 cells – cell-based, CellTiter-Glo luminescence, IC50, dose response (AID 1117332). Format: functional. The note with it: HCT-116.
Assay [9] in a line: SNU-C1 cell viability reduction, dose response, CellTiter-Glo luminescence (AID 1117323). Format: functional, cell-based.
Assay [10] in a line: cytotoxicity toward Colo320 cells – cell-based, CellTiter-Glo luminescence, IC50, dose response (AID 1117334). It is filed as functional. The note with it: COLO 320.
The nature of assay [11]: cytotoxicity toward HT-29 cells – cell-based, CellTiter-Glo luminescence, IC50, dose response (AID 1117330). Format: functional.
Assay [12] is described as follows: Reduced DLD-1 viability, concentration-response, CellTiter-Glo luminescence (AID 1117352). Format: functional.
A short description of assay [13]: HCT116 cell viability decrease, GSK3B pretreatment – CellTiter-Glo, IC50, dose response (AID 1117339). It is filed as functional. The note with it: HCT-116.
A short description of assay [14]: rise of 2N DNA cells, HeLa – IC50, dose response (AID 1117349). Format: functional, cell-based.
Assay [15] can be described thus: rise of 4N DNA cells, HeLa – IC50, dose response (AID 1117351). It is filed as functional, cell-based.
A short description of assay [16]: HIV-1 Vif–A3G interaction blockers – biochemical, TR-FRET, GST-Vif 1-94, biotin-A3G peptide, dose response retest, primary screen (AID 1117319).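 Also: TR-FRET signal of purified GST-Vif binding a biotinylated A3G peptide; inhibitors lower the FRET signal by blocking Vif and A3G binding.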 It is filed as functional.
In assay [17] the target is Glutathione-S-transferase (Schistosoma japonicum, UniProt Q26513). The assay is described as follows: GST-antibody interaction or FRET quenching – biochemical, TR-FRET, artefact control for Vif-APOBEC3G degradation inhibitor project, dose response (AID 1117362). Format: functional.
Glutathione-S-transferase, sequence (Q26513 whole entry): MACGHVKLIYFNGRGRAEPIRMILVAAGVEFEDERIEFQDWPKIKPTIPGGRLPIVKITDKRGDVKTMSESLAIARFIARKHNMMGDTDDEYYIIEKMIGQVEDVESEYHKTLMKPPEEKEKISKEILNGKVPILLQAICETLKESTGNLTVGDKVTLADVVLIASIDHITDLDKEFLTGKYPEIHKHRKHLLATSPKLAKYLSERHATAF
Assay [18] addresses Glyceraldehyde-3-phosphate dehydrogenase (Homo sapiens, UniProt P04406).
Assay [19] deals with T3, Bcl-2-related protein A1 (Mus musculus, UniProt Q07440).
T3 sequence (Q07440 whole entry): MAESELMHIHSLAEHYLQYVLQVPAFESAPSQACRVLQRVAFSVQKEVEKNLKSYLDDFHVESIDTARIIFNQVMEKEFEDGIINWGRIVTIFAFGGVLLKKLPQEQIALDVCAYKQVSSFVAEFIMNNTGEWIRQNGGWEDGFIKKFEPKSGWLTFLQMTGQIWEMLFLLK
The assay is described as follows: small-molecule antagonists of Bfl-1/BH3 interaction – biochemical, TR-FRET, mouse Bfl-1, confirmation (AID 621).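 Also: TR-FRET binding of GST-Bfl-1 to FITC-labelled Bid peptide via terbium antibody.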

The target of assay [20] is T3, Bcl-2-related protein A1. Briefly: Bfl-1 binding inhibitors, SAR follow-up, biochemical, fluorescence polarization (AID 1070).

The source of these data is ChEMBL document CHEMBL1201862, “PubChem BioAssay data set” (2004).

The IC50 is the concentration that inhibits the measured activity by half. What is called EC50 is the concentration that produces a half-maximal response. One may read the CC50 as the concentration at which the toxic effect on the cells reaches its halfway point. By AC50 is commonly meant the concentration at which the activity in the assay is half-maximal.

Activity calls are given as the source filed them.
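For CC50 in this document: cells exposed to compound for 72 hours before luminescence readout.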

Glyceraldehyde-3-phosphate dehydrogenase, sequence (P04406 whole entry): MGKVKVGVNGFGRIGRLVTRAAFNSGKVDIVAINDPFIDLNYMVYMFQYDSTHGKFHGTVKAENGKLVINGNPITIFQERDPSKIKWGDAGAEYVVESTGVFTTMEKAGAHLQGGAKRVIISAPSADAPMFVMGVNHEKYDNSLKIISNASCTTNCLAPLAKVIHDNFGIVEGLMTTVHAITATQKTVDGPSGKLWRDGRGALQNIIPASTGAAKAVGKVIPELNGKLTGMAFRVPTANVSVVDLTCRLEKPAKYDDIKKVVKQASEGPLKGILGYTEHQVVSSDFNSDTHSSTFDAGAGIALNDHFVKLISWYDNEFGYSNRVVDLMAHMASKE

For `COc1cccc(N(C(=O)CCl)C(C(=O)NCCc2ccccc2)c2cccs2)c1` (stereo unspecified), in [1], the IC50 was 0.581 µM (active). For the same compound, the EC50 in assay [2] was 1.59 µM (active); in assay [3], 1.48 µM (active); with BJ, 3.95 µM (active); on Protein RecA it was 0.329 µM (active). Further, the CC50 in assay [4] is 0.2 µM (active). The AC50 in assay [5] was 2.11 µM (active).
`C[C@H](O)CN(C)C`: the IC50 in [6], in [7], in assay [8], in assay [9], in assay [10] and in assay [11] was > 20 µM (inactive) each time. The IC50 in assay [12] and in assay [13] was > 20 µM (inactive) each time.
For the compound `CCCCCCCCCCCC[N+](C)(C)Cc1ccccc1`, the IC50 in assay [14] is > 10 µM (inactive); in assay [6], 7.95 µM (inactive); in assay [7] it was 3.07 µM (active); in assay [8], 1.96 µM (active); in assay [9], 0.02 µM (active); in assay [10] it was 8.99 µM (inactive). The IC50 was > 10 µM (inactive) in assay [15], 0.465 µM (active) in assay [11], 0.738 µM (active) in [12] and > 20 µM (inactive) in assay [13].
For the compound `CCOc1ccc(N/C([S-])=C(/C(=O)c2ccc(C)c([N+](=O)[O-])c2)[n+]2ccccc2)cc1`, the IC50 in assay [16] is > 100 µM (active).
In the case of `O=C(COC(=O)C12CC3CC(CC(Br)(C3)C1)C2)Nc1ccc2[nH]c(O)nc2c1`, the IC50 in assay [17] was 73.5 µM (active); in assay [16] it was > 100 µM (active).
On to `O=C1C(Cl)=C(Cl)C(=O)N1c1ccc(Cl)c(Cl)c1`, for which the IC50 in assay [18] was > 100 µM (not active); on Bcl-2-related protein A1 [19], 0.77 µM (active); on Bcl-2-related protein A1 [20] it was 1.15 µM (active).
